Several values for one entry are separate records, joined by “and”; a condition that tells them apart may be missing. Identical values can stand only once.
Legend:
[1] = cited from earlier work
[2] = tested on: A498 RCC cell-derived xenografts; experiment: A498 RCC cell-derived xenograft efficacy study in SCID mice; type: in vivo, mouse; settings: intravenous, 30 mg/kg/day
Description: A dose of 30 mg/kg/day of this preparation was administered by intravenous (tail vein) injections for a total dose of 482 mg/kg in SCID mice bearing […]. […] In addition, after the completion of the animal experiment, tumors from treatment and control groups were dissected, and cryosectioned for imaging of apoptotic signs using TUNEL (Terminal deoxynucleotidyl transferase dUTP nick end labeling) and CARP-1.
For efficacy studies, after a suitable period of acclimation, a suspension of 1×10^6 A498 RCC cells in 200 μl of serum-free Hank's balanced salt solution were subcutaneously implanted in flanks of each animal using a 27-gauge needle. Tumors were allowed to grow unperturbed for 10-14 days. When tumors became palpable (200 mm^3), the mice were randomly assigned to treatment or control groups of eight animals each. […] The end points for assessing antitumor activity consisted of tumor weight, tumor growth inhibition (% T/C), and tumor cell kill Log10. Tumor weight (mg)=(A×B2)/2 where A and B are the tumor length and width (in mm), respectively. Tumor growth inhibition (T/C) was the median tumor weight in the treated group (T) when the median tumor weight in the control group reached 750 mg. Results were expressed as percentage. […] Tumor volumes were calculated by the modified ellipsoidal formula. […]

caspase-3/7 = experiment: Caspase 3/7 assay in Evr-res A498 cells; type: cell-based, human; settings: RCC cells, vs control
AKT activity (pAKT) = experiment: Western blot of AKT activation in WT and Evr-res A498 cells; type: cell-based, human; settings: vs untreated control
Description: Western Blot analysis. For protein expression analysis, western blot experiments were conducted. The RCC cells were treated with DMSO/Vehicle (Control) for the indicated doses and times of the noted compound, and were lysed to prepare protein extracts. Cells were harvested and lysed in RIPA buffer (50 mM Tris-HCl, pH 8.0, 150 mM sodium chloride, 1.0% NP-40, 0.5% sodium deoxycholate, 0.1% sodium dodecyl sulfate (SDS), and 0.1% of protease inhibitor cocktail) for 20 min at 4° C. The lysates were then centrifuged at 14,000 rpm at 4° C. for 15 min to remove debris. The protein concentrations of whole cell lysates were then determined using the Protein Assay Kit. Supernatant proteins, 50 μg from each sample, were separated by SDS-10% polyacrylamide gel electrophoresis (SDS-PAGE) and transferred to polyvinylidene difluoride (PVDF) membrane (Bio-Rad, Hercules, CA) by standard procedures. The membranes were hybridized with primary antibodies followed by incubation with appropriate secondary antibodies. […]
Mechanism of C4.16 for overcoming drug resistance. In this study, we determined how induction of apoptosis and inhibition of oncogenic survival signaling would reinforce the synergistic cell killing and reversal of drug resistance in VVT and Evr-res A498 cells when treated with CA IX C4.16+Sor. […]

[3] = tested on: A498 Everolimus resistant type; settings: for Combination Index (Cl) Drug + CFM4.16: A498 Everolimus resistant type, drug combined with CFM4.16, MTT, CompuSyn
Description: Generation of Everolimus-resistant RCC cells.
(§1) Cell Viability Assays. […] After treatment, an MTT assay was performed.
(§2) In vitro cytotoxicity assay. […] First, the cells were seeded in a 96-well multiwell plate at a density of 5×10^3 cells per well. The cells were allowed to grow in fresh culture media overnight. CAIX-positive and CAIX-negative cells were generated by parallel treatments with hypoxia and normoxia as described above. After 20 h, the medium was removed, and the wells were washed twice with PBS. […] After treatment, an MTT assay was performed.
(§3) RCC is very difficult to treat as the cells are mostly resistant to many current therapies. […] First, we determined cytotoxicity of individual drugs C4.16, Sor, and Evr in both A498. […] In order to understand the safety of combination therapy, we performed the hemolysis assay using CAIX-C4.16 and combination of CAIX-C4.16+Sor.

A498 wild type = settings: for Combination Index (Cl) Drug + CFM4.16: A498 wild type, non-encapsulated drug combined with non-encapsulated CFM4.16, MTT, CompuSyn, CI<1 synergistic
Description: as §1, §2, §3

OUK262 wild type = experiment: MTT / CompuSyn combination index in OUK262 wild type RCC cells; settings: drug combined with CFM4.16
Description: (§4) Cell Viability Assays. […] First, 5×10^3 cells were seeded in a 96-well plate in triplicate and allowed to grow in fresh culture media for another 24 h. Cells were then treated with respective agents for the noted doses and times. Control cells were treated with 0.1% DMSO in culture medium. After treatment, an MTT assay was performed. Briefly, 20 μL of 1 mg/ml of MTT was added to each well and cells were incubated for 2-4 h at 37° C. MTT was removed, and the resulting formazan products were dissolved by adding 50 μl DMSO/well followed by colorimetric analysis using a multi-label plate reader at 570 nm (Victor3; PerkinElmer, Wellesley, MA).
(§5) All the clinically drugs were treated in combination with CFM4.16 with a range of concentrations using MTT assay in the specified RCC cell line, and the data were feed to CompuSyn program to obtain the CI-value.

[4] = tested on: OUK262 Everolimus resistant type; experiment: MTT / CompuSyn combination index in Everolimus resistant OUK262 RCC cells; settings: drug combined with CFM4.16
Description: as §4, §5

Evr-res A498 tumor = settings: mouse, in vivo
Description: In Vivo Imaging Studies. S0456 a reactive near-infra-red fluorochrome, was covalently linked with PLNPs and used for in vivo near-IR optical imaging of selected nanoparticle formulations. The formulations were injected intravenously in female nude mice bearing tumor xenografts. The distribution and tumor targeted delivery were imaged by tracking the fluorescent output of IRDye 800® with in vivo Imaging System (see FIG. 11).
PDX animal imaging and bio-distribution of CAIX-targeted-nanoformulation. A CAIX-targeted-nanomicelles conjugated with Near-infrared dye was administered directly via iv administration to 5-weeks old NCR SCID mice and the distribution behavior in the mice was monitored at different time points after administration using an in vivo imaging system.
To ascertain core penetrating ability of CA IX-S0456 in a drug resistant tumor model, we performed three transverse sectioning of the isolated tumor after the bio-D study.

RCC = settings: cited from earlier work; for progression free survival: RCC, clinical

Compound | Combination Index (Cl) Drug + CFM4.16 (OUK262 wild type) | Combination Index (Cl) Drug + CFM4.16 [4] | Combination Index (Cl) Drug + CFM4.16 [3] | Combination Index (Cl) Drug + CFM4.16 (A498 wild type) | other results
COc1cc2nccc(Oc3ccc(NC(=O)C4(C(=O)Nc5ccc(F)cc5)CC4)cc3)c2cc1OC [CB, cabozantinib] | – | – | – | – | well tolerated dose ([1]; mouse, in vivo): 60 mg/kg
O=C1N(Cc2ccccc2Cl)c2ccccc2C12NN=C(c1cccc(Cl)c1)S2 (stereo not drawn) [CFM-4.16] | – | – | – | – | tumor growth / tumor size [2]: failed to inhibit tumor growth; caspase-3/7 activity (caspase-3/7): induced caspase-3/7 activation; loss in body weight ([1]; 30 mg/kg/day iv, total dose 482 mg/kg, DMSO/cremophor preparation, SCID mice): < 2% and 1.6%; MTD ([1]; mouse, in vivo): 30 mg/kg; AKT activity (pAKT) (AKT activity (pAKT)): downregulation of pAKT; growth inhibition (in vitro cytotoxicity, comparison) [3]: more effective in inhibiting growth of WT and Evr-res A498 compared with Sor; growth inhibition (in vitro cytotoxicity, comparison) (A498 wild type): more effective in inhibiting growth of WT and Evr-res A498 compared with Sor
CC(C)(C)c1nc(-c2cccc(NS(=O)(=O)c3c(F)cccc3F)c2F)c(-c2ccnc(N)n2)s1 [Dabrafenib] | 0.234 | 0.587 | 0.677 | 0.1385 | –
CO[C@H]1C[C@@H]2CC[C@@H](C)[C@@](O)(O2)C(=O)C(=O)N2CCCC[C@H]2C(=O)O[C@H]([C@H](C)C[C@@H]2CC[C@@H](OCCO)[C@H](OC)C2)CC(=O)[C@H](C)/C=C(\C)[C@@H](O)[C@@H](OC)C(=O)[C@H](C)C[C@H](C)/C=C/C=C/C=C/1C [Everolimus] | 0.67 | 1.45 | 1.3 | 0.7 | growth inhibition (in vitro cytotoxicity, comparison) [3]: did not inhibit growth
O=C(c1cc(Cc2n[nH]c(=O)c3ccccc23)ccc1F)N1CCN(C(=O)C2CC2)CC1 [Olaparip] | 0.9878 | 1.312 | 1.121 | 1.0978 | –
CC(=O)c1c(C)c2cnc(Nc3ccc(N4CCNCC4)cn3)nc2n(C2CCCC2)c1=O [Palbociclib] | 0.897 | 1.0023 | 0.971 | 0.7 | –
CC1(C)C(/C=C/C2=C(Cl)C(=C/C=C3/N(CCCCS(=O)(=O)[O-])c4ccc(S(=O)(=O)[O-])cc4C3(C)C)/CCC2)=[N+](CCCCS(=O)(=O)[O-])c2ccc(S(=O)(=O)[O-])cc21.[Na+].[Na+].[Na+] [S0456] | – | – | – | – | tumor accumulation / selectivity (Evr-res A498 tumor): poor tumor accumulation with high off-target activity
CNC(=O)c1cc(Oc2ccc(NC(=O)Nc3ccc(Cl)c(C(F)(F)F)c3)cc2)ccn1 [Sorafenib] | – | – | – | – | progression free survival (RCC): 12 months; AKT activity (pAKT) (AKT activity (pAKT)): downregulation of pAKT
Nivolumab: immune-check point inhibitor (anti-PD1) approved for RCC | – | – | – | – | response rate, higher than Evr (RCC; RCC patients): 5%; progression free survival (RCC): 32 months
